In US9079895B2, “Morpholino compounds, uses and methods” (University of Dundee, priority 2012, dated 2015):
Blank lines part the entries; values can stand above or below the compound they belong to.

Experiments:
Conditions in all cases: average of at least two experiments
dopamine D2 receptor = dopamine D2 receptor (Homo sapiens (Human), UniProt P14416); assay: Secondary radioligand binding assay, D2; set-up: key to Ki D2: “—” indicates that a binding interaction was not detected
Protocol: 1. Secondary Radioligand Binding Assays
The detailed experimental protocols for the radioligand and functional receptor assays are available on the NIMH PDSP website at http://pdsp.med.unc.edu/UNC-CH %20Protocol %20Book.pdf.
Radioligand is diluted to five times the assay concentration (see Table 18) in Standard Binding Buffer. Typically, the assay concentration of radioligand is a value between one half the KD and the KD of a particular radioligand at its target. 50 μl aliquots of radioligand are dispensed into the wells of a 96-well plate containing 100 μl of Standard Binding Buffer. Then, duplicate 50 μl aliquots of the test and reference compound dilutions are added.
The 250 μl reactions are incubated at room temperature and shielded from light (to prevent photolysis of light-sensitive ligands) for 1.5 hours, then harvested by rapid filtration onto Whatman GF/B glass fiber filters pre-soaked with 0.3% polyethyleneimine using a 96-well Brandel harverster. Four rapid 500 μl washes are performed with chilled Standard Binding Buffer to reduce non-specific binding. Filters are placed in 6 ml scintillation tubes and allowed to dry overnight. The next day, 4 ml of EcoScint scintillation cocktail (National Diagnostics) are added to each tube. The tubes are capped, labeled, and counted by liquid scintillation counting. […] The filter mats are dried, then scintillant is melted onto the filters and the radioactivity retained on the filters is counted in a Microbeta scintillation counter.
Raw data (dpm) representing total radioligand binding (i.e. specific+non-specific binding) are plotted as a function of the logarithm of the molar concentration of the competitor (i.e. test or reference compound).
B. Dopamine Receptors: D1, D2, D3, D4, D5 Assay Buffers: Dopamine Binding Buffer (50 mM NaCl, 50 mM HEPES-HCl, 5 mM MgCl2, 0.5 mM EDTA, pH 7.4) Membrane Fraction Source: Transiently or stably transfected cell lines (e.g. HEK293, COS, CHO, NIH3T3)
The method is carried out in the manner described for the serotonin receptor assay above. Eleven dilutions (5× assay concentration) of the test and reference (see Table 19) compounds are prepared in Dopamine Binding Buffer by serial dilution, as previously described. Radioligand is diluted to five times the assay concentration (see Table 20) in Dopamine Binding Buffer.

5HT4 receptor = 5HT4 receptor (Homo sapiens (Human), UniProt Q13639); assay: Secondary radioligand binding assay, 5HT4; set-up: key: “—” indicates that a binding interaction was not detected
Protocol: 1. Secondary Radioligand Binding Assays The detailed experimental protocols for the radioligand and functional receptor assays are available on the NIMH PDSP website at http://pdsp.med.unc.edu/UNC-CH %20Protocol %20Book.pdf. Assay Buffer: Standard Binding Buffer (50 mM Tris-HCl, 10 mM MgCl2, 1 mM EDTA, pH 7.4) Membrane Fraction Source: Transiently or stably transfected cell lines (e.g., HEK293, COS, CHO, NIH3T3) Protocol adapted from Roth et al. (1986), J. Pharmacol. Exp. Ther., 238(2): 480-485; and Roth et al. (1994), J. Pharmacol. Exp. Ther., 268(3): 1403-1410. […] A similar stock of a reference compound (positive control) is also prepared. […] Radioligand is diluted to five times the assay concentration (see Table 18) in Standard Binding Buffer. Typically, the assay concentration of radioligand is a value between one half the KD and the KD of a particular radioligand at its target. 50 μl aliquots of radioligand are dispensed into the wells of a 96-well plate containing 100 μl of Standard Binding Buffer. Then, duplicate 50 μl aliquots of the test and reference compound dilutions are added. Finally, crude membrane fractions of cells expressing recombinant target (prepared from 10 cm plates by harvesting PBS-rinsed monolayers, resuspending and lysing in chilled, hypotonic 50 mM Tris-HCl, pH 7.4, centrifuging at 20,000×g, decanting the supernatant and storing at −80° C.; typically, one 10 cm plate provides sufficient material for 24 wells), are resuspended in 3 ml of chilled Standard Binding Buffer and homogenized by several passages through a 26 gauge needle, then 50 μl are dispensed into each well. […] Four rapid 500 μl washes are performed with chilled Standard Binding Buffer to reduce non-specific binding. Filters are placed in 6 ml scintillation tubes and allowed to dry overnight. The next day, 4 ml of EcoScint scintillation cocktail (National Diagnostics) are added to each tube. The tubes are capped, labeled, and counted by liquid scintillation counting. For higher throughput assays, bound radioactivity is harvested onto 0.3% polyethyleneimine-treated, 96-well filter mats using a 96-well Filtermate harvester. The filter mats are dried, then scintillant is melted onto the filters and the radioactivity retained on the filters is counted in a Microbeta scintillation counter. Raw data (dpm) representing total radioligand binding (i.e. specific+non-specific binding) are plotted as a function of the logarithm of the molar concentration of the competitor (i.e. test or reference compound).

[1] = molecular target: Alpha1A adrenergic receptor (Homo sapiens (Human), UniProt P35348); assay: Secondary radioligand binding assay, Alpha1A; set-up: key to Ki Alpha1A: “—” indicates that a binding interaction was not detected
Source text: 1. Secondary Radioligand Binding Assays The detailed experimental protocols for the radioligand and functional receptor assays are available on the NIMH PDSP website at http://pdsp.med.unc.edu/UNC-CH %20Protocol %20Book.pdf. Raw data (dpm) representing total radioligand binding (i.e. specific+non-specific binding) are plotted as a function of the logarithm of the molar concentration of the competitor (i.e. test or reference compound). […] C. Adrenergic Receptors: α1A, α1B, α2A, α2B, α2C, β1, β2, β3 Assay Buffers: For α1 receptors, α1 Binding Buffer (20 mM Tris-HCl, 145 mM NaCl, pH 7.4); for α2 receptors, α2 Binding Buffer (50 mM Tris-HCl, 5 mM MgCl2, pH 7.7); for β receptors, β Binding Buffer (50 mM Tris-HCl, 3 mM MnCl2, pH 7.7) Membrane Fraction Source: Transiently or stably transfected cell lines (e.g. HEK293, COS, CHO, NIH3T3) Protocol adapted from Arango et al. […] (1990), Gen. Psychiatry, 47: 1038-1047. The method is carried out in the manner described for the serotonin receptor assay above, except where described below. Eleven dilutions (5× assay concentration) of the test and reference (see Table 20) compounds are prepared in the appropriate buffer by serial dilution, as previously described. Radioligand is diluted to five times the assay concentration (see Table 21) in the appropriate buffer. […] Four rapid 500-μl washes are performed with chilled distilled water (for α1 and β receptors) or 0.1% polyethyleneimine (for α2 receptors) to reduce non-specific binding. Filters are placed in 6 ml scintillation tubes and allowed to dry overnight and the samples are treated to obtain data as described above. [table]

5HT1a receptor = 5HT1a receptor (Homo sapiens (Human), UniProt P08908); assay: Secondary radioligand binding assay, 5HT1a
Sequence of 5HT1a receptor (P08908 whole entry): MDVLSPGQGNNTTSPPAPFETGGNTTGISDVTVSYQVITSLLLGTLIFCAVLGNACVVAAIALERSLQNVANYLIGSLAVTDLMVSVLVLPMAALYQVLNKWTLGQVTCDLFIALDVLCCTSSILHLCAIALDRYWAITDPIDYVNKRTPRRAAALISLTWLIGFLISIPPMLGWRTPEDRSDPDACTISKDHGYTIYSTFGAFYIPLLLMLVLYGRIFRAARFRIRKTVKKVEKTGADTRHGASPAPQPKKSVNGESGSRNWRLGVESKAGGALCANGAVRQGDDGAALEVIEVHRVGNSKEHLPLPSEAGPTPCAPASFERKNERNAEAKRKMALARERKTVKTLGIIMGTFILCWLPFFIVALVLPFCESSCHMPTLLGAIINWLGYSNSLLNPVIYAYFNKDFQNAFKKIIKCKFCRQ

Sequence of dopamine D2 receptor (P14416 whole entry, species assumed): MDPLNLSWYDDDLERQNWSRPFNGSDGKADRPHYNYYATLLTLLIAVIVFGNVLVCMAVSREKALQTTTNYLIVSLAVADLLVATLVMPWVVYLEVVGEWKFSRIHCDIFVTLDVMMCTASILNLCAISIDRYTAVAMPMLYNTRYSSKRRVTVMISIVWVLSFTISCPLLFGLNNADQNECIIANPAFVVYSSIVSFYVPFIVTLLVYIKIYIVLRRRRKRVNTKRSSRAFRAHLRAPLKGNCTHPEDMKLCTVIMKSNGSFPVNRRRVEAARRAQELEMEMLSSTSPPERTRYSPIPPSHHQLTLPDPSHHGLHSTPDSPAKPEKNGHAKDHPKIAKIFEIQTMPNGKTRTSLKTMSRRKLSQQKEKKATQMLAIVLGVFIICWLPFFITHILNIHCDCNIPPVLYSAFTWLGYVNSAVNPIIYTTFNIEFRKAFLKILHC
Sequence of Alpha1A adrenergic receptor (P35348 whole entry): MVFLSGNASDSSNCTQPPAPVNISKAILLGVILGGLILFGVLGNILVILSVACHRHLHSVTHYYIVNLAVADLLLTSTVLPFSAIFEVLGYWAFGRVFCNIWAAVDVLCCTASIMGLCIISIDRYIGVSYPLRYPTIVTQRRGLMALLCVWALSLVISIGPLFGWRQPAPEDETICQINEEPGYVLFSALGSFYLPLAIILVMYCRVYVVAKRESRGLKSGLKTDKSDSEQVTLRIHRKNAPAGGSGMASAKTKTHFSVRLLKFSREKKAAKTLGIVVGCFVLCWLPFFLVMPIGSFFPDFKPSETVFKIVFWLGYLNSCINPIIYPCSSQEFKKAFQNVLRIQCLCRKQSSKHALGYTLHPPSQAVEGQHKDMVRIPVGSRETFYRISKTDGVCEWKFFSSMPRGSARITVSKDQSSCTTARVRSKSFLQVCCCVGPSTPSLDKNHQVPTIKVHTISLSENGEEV
Sequence of 5HT4 receptor (Q13639 whole entry): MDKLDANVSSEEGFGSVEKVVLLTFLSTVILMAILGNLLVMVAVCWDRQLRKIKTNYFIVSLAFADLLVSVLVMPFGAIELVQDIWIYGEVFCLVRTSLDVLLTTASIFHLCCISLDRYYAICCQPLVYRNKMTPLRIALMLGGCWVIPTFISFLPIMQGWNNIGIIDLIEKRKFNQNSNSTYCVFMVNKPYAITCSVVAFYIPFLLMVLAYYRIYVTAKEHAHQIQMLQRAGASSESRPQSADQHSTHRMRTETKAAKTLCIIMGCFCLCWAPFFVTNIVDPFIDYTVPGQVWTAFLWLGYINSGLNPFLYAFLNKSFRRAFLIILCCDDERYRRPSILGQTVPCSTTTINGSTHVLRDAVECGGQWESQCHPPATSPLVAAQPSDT

- Ki D2 (dopamine D2 receptor): —
- Ki 5HT4 (5HT4 receptor): —
- Ki Alpha1A [1]: —
Structure (SMILES): Cc1ccnc(OC[C@H]2CN(CC(=O)N3CCc4ccccc43)CCO2)c1 [Compound 16r]

- Ki (dopamine D2 receptor): > 10 µM
- Ki 5HT4 (5HT4 receptor): —
- Ki Alpha1A [1]: —
Structure (SMILES): Clc1cccc(OC[C@H]2CN(CCN3CCc4ccccc43)CCO2)c1 [Compound 23r, (R)-2-((3-Chlorophenoxy)methyl)-4-(2-(indolin-1-yl)ethyl)morpholine]

- Ki D2 (dopamine D2 receptor): —
- Ki 5HT4 (5HT4 receptor): —
- Ki Alpha1A [1]: —
Structure (SMILES): Clc1cncc(OC[C@H]2CN(CCN3CCc4ccccc43)CCO2)c1 [Compound 27r, (R)-2-(((5-Chloropyridin-3-yl)oxy)methyl)-4-(2-(indolin-1-yl)ethyl)morpholine]

- Ki (5HT1a receptor): 0.592 µM
- Ki D2 (dopamine D2 receptor): —
- Ki 5HT4 (5HT4 receptor): —
- Ki Alpha1A [1]: —
Structure (SMILES): Cc1ncccc1OC[C@@H]1CN(CC(=O)N2c3ccccc3CC2C)CCO1.Cl (stereo partly drawn) [Compound 60]

- Ki (5HT1a receptor): 0.54 µM
- Ki D2 (dopamine D2 receptor): —
- Ki 5HT4 (5HT4 receptor): —
- Ki Alpha1A [1]: —
Structure (SMILES): Cc1ncccc1OC[C@@H]1CN(CC(=O)N2c3ccccc3C[C@H]2C)CCO1 [Compound 61]

- Ki (5HT1a receptor): > 10 µM
- Ki D2 (dopamine D2 receptor): —
- Ki 5HT4 (5HT4 receptor): —
- Ki Alpha1A [1]: —
Structure (SMILES): CC1Cc2ccccc2N1C(=O)CN1CCO[C@@H](COc2ccncc2)C1 (stereo partly drawn) [Compound 68]

- Ki (5HT1a receptor): > 10 µM
- Ki D2 (dopamine D2 receptor): —
- Ki 5HT4 (5HT4 receptor): —
- Ki Alpha1A [1]: —
Structure (SMILES): CC1Cc2ccccc2N1C(=O)CN1CCO[C@@H](COc2ccccn2)C1 (stereo partly drawn) [Compound 69]

The remaining lines, values behind:

Structure (SMILES): O=C(CN1CCO[C@@H](COc2ccccn2)C1)N1CCc2ccccc21 [Compound 14r, (R)-1-(Indolin-1-yl)-2-(2-((pyridin-2-yloxy)methyl)morpholino)ethanone]
- Ki D2 (dopamine D2 receptor): —
- Ki 5HT4 (5HT4 receptor): —
- Ki Alpha1A [1]: —

Structure (SMILES): O=C(CN1CCO[C@@H](COc2cccnc2)C1)N1CCc2ccccc21 [Compound 20r, (R)-1-(Indolin-1-yl)-2-(2-((pyridin-3-yloxy)methyl)morpholino)ethanone]
- Ki D2 (dopamine D2 receptor): —
- Ki 5HT4 (5HT4 receptor): —
- Ki Alpha1A [1]: —

Structure (SMILES): O=C(CN1CCO[C@H](COc2cccnc2)C1)N1CCc2ccccc21 [Compound 20s, (S)-1-(Indolin-1-yl)-2-(2-((pyridin-3-yloxy)methyl)morpholino)ethanone]
- Ki D2 (dopamine D2 receptor): —
- Ki 5HT4 (5HT4 receptor): —
- Ki Alpha1A [1]: —

Structure (SMILES): Clc1cccc(OC[C@@H]2CN(CCN3CCc4ccccc43)CCO2)c1 [Compound 23s, (S)-2-((3-chlorophenoxy)methyl)-4-(2-(indolin-1-yl)ethyl)morpholine]
- Ki (dopamine D2 receptor): 1.89 µM
- Ki 5HT4 (5HT4 receptor): —
- Ki [1]: 9.04 µM

Structure (SMILES): COc1cccc(OC[C@@H]2CN(CC(=O)N3CCc4ccccc43)CCO2)c1 [Compound 24s, (S)-1-(Indolin-1-yl)-2-(2-((3-methoxyphenoxy)methyl)morpholino)ethanone]
- Ki (5HT1a receptor): 0.371 µM
- Ki D2 (dopamine D2 receptor): —
- Ki 5HT4 (5HT4 receptor): —
- Ki Alpha1A [1]: —

Structure (SMILES): COc1cccc(OC[C@@H]2CN(CCN3CCc4ccccc43)CCO2)c1 [Compound 25s, (S)-4-(2-(Indolin-1-yl)ethyl)-2-((3-methoxyphenoxy)methyl)morpholine]
- Ki (5HT1a receptor): 0.174 µM
- Ki (dopamine D2 receptor): 10 µM
- Ki 5HT4 (5HT4 receptor): —
- Ki [1]: 8.35 µM

Structure (SMILES): Cc1ncccc1OC[C@H]1CN(CCN2CCc3ccccc32)CCO1 [Compound 26r, (R)-4-(2-(Indolin-1-yl)ethyl)-2-(((2-methylpyridin-3-yl)oxy)methyl)morpholine]
- Ki D2 (dopamine D2 receptor): —
- Ki 5HT4 (5HT4 receptor): —
- Ki Alpha1A [1]: —

Structure (SMILES): Clc1cncc(OC[C@@H]2CN(CCN3CCc4ccccc43)CCO2)c1 [Compound 27s, (S)-2-(((5-Chloropyridin-3-yl)oxy)methyl)-4-(2-(indolin-1-yl)ethyl)morpholine]
- Ki (dopamine D2 receptor): > 10 µM
- Ki 5HT4 (5HT4 receptor): —
- Ki Alpha1A [1]: —

Structure (SMILES): Cc1ccc(OC[C@H]2CN(CCN3CCc4ccccc43)CCO2)cn1 [Compound 28r, (R)-4-(2-(Indolin-1-yl)ethyl)-2-(((6-methylpyridin-3-yl)oxy)methyl)morpholine]
- Ki D2 (dopamine D2 receptor): —
- Ki 5HT4 (5HT4 receptor): —
- Ki Alpha1A [1]: —

Structure (SMILES): Cc1ncccc1OC[C@H]1CN(CC(=O)N2c3ccccc3CC2C)CCO1 (stereo partly drawn) [Compound 62]
- Ki (5HT1a receptor): 6.59 µM
- Ki D2 (dopamine D2 receptor): —
- Ki 5HT4 (5HT4 receptor): —
- Ki Alpha1A [1]: —

Structure (SMILES): Cc1ncccc1OC[C@H]1CN(CC(=O)N2c3ccccc3C[C@H]2C)CCO1 [Compound 63]
- Ki (5HT1a receptor): 5.02 µM
- Ki D2 (dopamine D2 receptor): —
- Ki 5HT4 (5HT4 receptor): —
- Ki Alpha1A [1]: —

Structure (SMILES): CC1Cc2ccccc2N1C(=O)CN1CCO[C@@H](COc2cccc(Cl)c2)C1 (stereo partly drawn) [Compound 65]
- Ki (5HT1a receptor): > 10 µM
- Ki D2 (dopamine D2 receptor): —
- Ki 5HT4 (5HT4 receptor): —
- Ki Alpha1A [1]: —

Structure (SMILES): Cc1ccccc1OC[C@H]1CN(CC(=O)N2c3ccccc3CC2C)CCO1 (stereo partly drawn) [Compound 66]
- Ki (5HT1a receptor): 7.54 µM
- Ki D2 (dopamine D2 receptor): —
- Ki 5HT4 (5HT4 receptor): —
- Ki Alpha1A [1]: —

Structure (SMILES): C[C@@H]1Cc2ccccc2N1C(=O)CN1CCO[C@@H](COc2ccncc2)C1 [Compound 67]
- Ki (5HT1a receptor): > 10 µM
- Ki D2 (dopamine D2 receptor): —
- Ki 5HT4 (5HT4 receptor): —
- Ki Alpha1A [1]: —

Structure (SMILES): Cc1ccnc(OC[C@H]2CN(CC(=O)N3c4ccccc4CC3C)CCO2)c1 (stereo partly drawn) [Compound 70]
- Ki (5HT1a receptor): 6.37 µM
- Ki D2 (dopamine D2 receptor): —
- Ki 5HT4 (5HT4 receptor): —
- Ki Alpha1A [1]: —
